Tests used:
[1] = system: Capan-1 cells (BRCA2-deficient); test: Cell proliferation assay (CellTiter-Glo), Capan-1; type: cell-based; conditions: for IC50: Homo sapiens, CAPAN-1, light or radiation study, 10 days incubation
Experimental: (§1) To assess the cytotoxicity of test compounds on BRCA-deficient cells using a CellTiter-Glo assay. MX-1 cells (BRCA1-deficient) and Capan-1 cells (BRCA2-deficient) were seeded in 96-well plates at densities that allowed linear growth for 10 days, and adhered overnight at 37 °C in a humidified atmosphere of 5% CO2. Cells were treated in their recommended growth medium containing varying concentrations of test compounds. […] After 10 days of incubation, CellTiter-Glo Reagent (Promega, Madison, WI, USA) was added to the plates, which continued to be incubated for 30 min at room temperature. Chemiluminescence values were recorded by a multiplate reader, and IC50 values were calculated using GraphPad Prism 8.0 software.

[2] = Talazoparib UV stability assay (HPLC); type: physicochemical; conditions: 2.63 mM in methanol, 365 nm, up to 10 min
Experimental: The irradiation times were 1 min, 2 min, 3 min, 4 min, 5 min, and 10 min. The irradiated solution was transferred to a volumetric flask and diluted to the same volume with methanol. Then HPLC analysis was performed to detect the compound peak area. […] California, CA, USA) using a mobile phase A (water) and mobile phase B (acetonitrile (ACN)) to elute. The gradient changed from 70% A to 30% A in 10 min, then continuing to elute with 30% A for 5 min. The flow rate was 1 mL/min, and the detection wavelength was 220 nm.

[3] = system: poly (ADP-ribose) (PAR) polymerization in HeLa cells; test: Cellular PARylation assay (H2O2-induced PAR polymerization); type: cell-based; conditions: for IC50: Homo sapiens, 18 h compound, 500 μM H2O2, read-out: Inhibit Polymerization of PAR IC50
Experimental: The cellular PARylation assay evaluated the ability of test compounds to inhibit polymerization of PAR. Hela cells were seeded in 96-well plates (10,000 cells/well) in 200 μL of cell complete medium, and were allowed to adhere for 4 h at 37 °C in a humidified atmosphere of 5% CO2. The medium was then removed from the plates, and the cells were treated with varying concentrations of test compounds for 18 h. 100 μL serum-free medium with 500 μM H2O2 solution was added, and the plate was kept at 37 °C for 5 min. Next, cells were fixed for 20 min with prechilled methanol at −20 °C and were incubated with 60 μL Poly(ADP-ribose) monoclonal antibody (1:2000) (prepared at 1x PBS containing 0.05% Tween-20 with 1% bovine serum albumin) at 37 °C for 2 h, followed by incubation with 60 μL IRDye 800CW goat anti-mouse IgG (diluted to 1:5000) and DNA stain DRAQ5 (1:5000) (prepared at 1× PBS containing 0.05% Tween-20 with 1% bovine serum albumin) at 37 °C for 2 h. The fluorescent signal was normalized with the DRAQ5 signal, and IC50 values were calculated using GraphPad Prism 8.0 software.

[4] = system: MX-1 cells (BRCA1-deficient); test: Cell proliferation assay (CellTiter-Glo), MX-1; type: cell-based; conditions: for IC50: Homo sapiens, MX1, light or radiation study, 10 days incubation
Experimental: as §1

[5] = system: PARP; conditions: PARP inhibitor potency; cited from earlier work
[6] = Phosphate-buffered saline stability of the photoactivatable prodrug (HPLC); type: physicochemical; conditions: 20 μM, pH = 7.4 PBS with 10% DMSO, 37 °C, 48 h
Experimental: Twenty μM of the test compound in pH = 7.4 PBS, containing 10% DMSO, were transferred to 13 1 mL volumetric flasks in equal volumes, incubated at 37 °C. The volumetric flasks were taken out at 0 min, 5 min, 10 min, 15 min, 30 min, 1 h, 2 h, 4 h, 8 h, 12 h, 24 h, 48 h, and 7 days, and were frozen at −80 °C. The samples were thawed in sequence and diluted to the same volume with methanol. Then HPLC analysis was performed to detect the compound peak area. Samples were determined on an Agilent Eclipse Plus C18 column (4.6 × 150 mm, 5 μm particle size; California, CA, USA) using a mobile phase A (water) and mobile phase B (ACN) to elute. The gradient changed from 70% A to 30% A in 10 min, continuing to elute with 30% A for 5 min. The flow rate was 1 mL/min, and the detection wavelength was 220 nm.

[7] = UV cleavage test in methanol (HPLC); type: physicochemical; conditions: 20 μM in methanol, 365 nm UV
Experimental: The compound was dissolved in methanol (20 μM), and the solution were irradiated at 365 nm by using an UV crosslinker. Every minute from 0 to 10 min, aliquot samples (200 μL) were determined on an Agilent Eclipse Plus C18 column (4.6 × 150 mm, 5 μm particle size) using mobile phase A (water) and mobile phase B (ACN) to elute. The gradient changed from 70% A to 30% A in 10 min, continuing to elute with 30% A for 5 min. The flow rate was 1 mL/min and the detection wavelength was 220 nm. The peak areas percentage of the compounds at each time point were plotted against the sampling time.

[8] = molecular target: T1, PARP-1 enzyme (Homo sapiens, UniProt P09874); test: PARP-1 enzyme inhibition assay (PARP-1 Chemiluminescent Assay Kit); type: biochemical
T1 construct: purchased BPS 80569
T1 sequence (P09874 whole entry): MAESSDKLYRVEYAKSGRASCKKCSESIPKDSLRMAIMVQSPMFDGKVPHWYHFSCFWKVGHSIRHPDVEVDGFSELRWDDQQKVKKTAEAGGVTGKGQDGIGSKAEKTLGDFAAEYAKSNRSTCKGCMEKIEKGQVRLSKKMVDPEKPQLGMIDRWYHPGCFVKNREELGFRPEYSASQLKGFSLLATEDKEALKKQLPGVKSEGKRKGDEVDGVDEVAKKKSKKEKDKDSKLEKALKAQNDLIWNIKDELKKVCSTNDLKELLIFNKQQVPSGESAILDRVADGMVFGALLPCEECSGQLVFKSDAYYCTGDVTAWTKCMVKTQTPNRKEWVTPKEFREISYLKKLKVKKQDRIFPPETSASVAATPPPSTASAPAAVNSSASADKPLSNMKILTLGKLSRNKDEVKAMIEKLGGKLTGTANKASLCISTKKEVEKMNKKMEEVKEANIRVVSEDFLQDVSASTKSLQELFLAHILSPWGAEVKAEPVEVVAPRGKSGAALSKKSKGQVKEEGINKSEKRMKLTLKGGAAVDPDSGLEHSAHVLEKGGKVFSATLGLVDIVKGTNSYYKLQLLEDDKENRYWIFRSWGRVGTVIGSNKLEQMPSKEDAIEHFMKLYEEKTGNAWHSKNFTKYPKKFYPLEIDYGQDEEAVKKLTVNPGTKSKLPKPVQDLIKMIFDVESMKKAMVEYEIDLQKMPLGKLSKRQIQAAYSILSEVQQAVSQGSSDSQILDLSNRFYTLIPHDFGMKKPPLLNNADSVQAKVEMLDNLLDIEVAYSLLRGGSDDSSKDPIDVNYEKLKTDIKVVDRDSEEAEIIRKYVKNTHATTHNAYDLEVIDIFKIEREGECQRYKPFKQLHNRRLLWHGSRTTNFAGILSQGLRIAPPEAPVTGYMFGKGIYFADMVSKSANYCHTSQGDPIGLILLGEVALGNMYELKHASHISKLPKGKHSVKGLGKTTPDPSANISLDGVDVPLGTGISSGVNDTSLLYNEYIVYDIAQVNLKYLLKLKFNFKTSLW
Experimental: A PARP-1 Chemiluminescent Assay Kit (Cat# 80569, BPS, San Diego, CA, USA) was used to detect the ability of compounds to inhibit PARP-1 enzyme activity. All experimental steps followed the operating manual. Firstly, each well was precoated with 25 μL 1× histone mixture that was diluted in PBS by incubation at 4 °C overnight. The wells were blocked by adding 100 μL of blocking buffer, then incubated at room temperature for 90 min. Then 12.5 μL of the prepared 1× PARP assay mixture and 1× activated DNA in 1× PARP buffer were added into each well of the assay plate, and 2.5 μL of compound or solvent control were added at varying concentrations. The reaction was initiated by the addition of 10 μL 1 ng/μL PARP-1 enzyme in 1× PARP buffer at room temperature for 60 min. Next, the reaction solution was added with 25 μL of diluted Streptavidin-HRP (1:50 in blocking buffer) to each well at room temperature for an additional 30 min. Finally, 25 μL of Horseradish Peroxidase (HRP) chemiluminescent substrate A and 25 μL of HRP chemiluminescent substrate B were mixed on ice, and the mixture was added by 50 μL per well. The luminescent signal was measured using a multi-function microplate reader, and IC50 values were calculated using GraphPad Prism 8.0 software.

[9] = UV cleavage test in culture medium DMEM in 96-well plate (HPLC); type: physicochemical; conditions: 10 μM in DMEM, 365 nm, 3 min
Experimental: Therefore, we tested the Capan-1 cells that could tolerate a longer UV irradiation duration. […] We simulated the same cytotoxicity experimental conditions to evaluate the photolysis of 10 μΜ compound 3 (10 μM is the starting concentration of compound 3 in cytotoxicity experiments) in a 96-well plate.
Supplementary Materials: Design, Synthesis and In Vitro Evaluation of the […]
Jiaguo Li 1, 2, Dian Xiao 2, Lianqi Liu 2, Fei Xie 2, Wei Li 2, Wei Sun 1,*, Xiaohong Yang 1,*, and Xinbo Zhou 2,* […]
wavelength scanning; (B) Local UV/Vis absorption spectra with a wavelength range of 290-500 nm. Compound […]
Introduction of the PPG into the parent compound's molecular structure leads to increased light absorption around 365 nm. Wavelengths shorter than 300 nm is highly energetic and can easily damage tissues and cells. Therefore, 365 nm was considered as the optimal wavelength for deprotection.
Figure S2. UV-cleavage test on the Compound 3 in culture medium DMEM. Compound 3 were dissolved in DMEM medium containing 0.1 %DMSO and added to 96-well plates at a final concentration of 10 μM. After being irradiated for 1 min and 3 min at 365 nm respectively, the samples were analyzed by HPLC. The peak area is plotted against the irradiation time. […]

[10] = UV+, compound irradiated 20 min at 365 nm before addition to cells

| stability in PBS (HPLC peak area) [6] | IC50 [8] [nM] | reduction of PARP-1 inhibitory activity versus Talazoparib ([8]; ratio of IC50 values, compound 3 vs Talazoparib) [times] | SMILES | IC50 ([1]; 240 h, UV-, no irradiation) [nM] | UV stability (HPLC peak area) [2] | IC50 [3] [nM] | IC50 ([4]; 240 h, UV-, no irradiation) [nM] | IC50 [5] [nM] | IC50 ([1]; UV+, 365 nm irradiation of cells 3 min after 1 h incubation) [nM] | inhibitory activity on Capan-1 cells after UV irradiation versus non-irradiated group ([1]; UV 3 min vs no UV) | decrease of PARylation inhibitory activity versus Talazoparib ([3]; ratio of IC50 values) [times] | irradiation time to complete release (photolysis) [7] [min] | IC50 ([4]; UV+, 365 nm irradiation of cells 1 min after 1 h incubation) [nM] | inhibitory activity on MX-1 cells after UV irradiation versus non-irradiated group ([4]; UV 1 min vs no UV) | release after UV irradiation under cytotoxicity experimental conditions [9] | IC50 [1, 10] [nM] | IC50 [4, 10] [nM] |
| --- | --- | --- | --- | --- | --- | --- | --- | --- | --- | --- | --- | --- | --- | --- | --- | --- | --- |
| – | – | – | Cn1ncnc1[C@H]1c2n[nH]c(=O)c3cc(F)cc(c23)N[C@@H]1c1ccc(F)cc1 [Talazoparib, reference compound] | 3 | no significant loss | […] | 15 | […] | – | – | – | – | – | – | – | – | – |
| did not show significant changes | 1920 | 380 | Cn1ncnc1[C@H]1c2nn(Cc3cc4c(cc3[N+](=O)[O-])OCO4)c(=O)c3cc(F)cc(c23)N[C@@H]1c1ccc(F)cc1 [compound 3, (8S,9R)-5-Fluoro-8-(4-fluorophenyl)-9-(1-methyl-1H-1,2,4-triazol-5-yl)-2-((6-nitrobenzo[d][1,3]dioxol-5-yl)methyl)-2,7,8,9-tetrahydro-3H pyrido[4,3,2-de]phthalazin-3-one] | 863 | – | 329 | 1870 | – | 92 | nine times higher | ≥ 658 | 3 | 577 | approximately three times higher | not released completely | – | – |
| – | – | – | C[C@H](NC(=O)OC(C)(C)C)C(=O)OCc1cc2c(cc1[N+](=O)[O-])OCO2 [compound 6, (6-Nitrobenzo[d][1,3]dioxol-5-yl)methyl (tert-butoxycarbonyl)-L-alaninate] | > 10000 | – | – | > 10000 | – | – | – | – | ≤ 20 | – | – | – | > 10000 | > 10000 |

Reference: article PMC7024556 (Molecules, 2020)
